≈ marks a conversion by molar mass, not a printed value.
Columns and labels:
EC 25922 [1] = test: MIC90 determination by serial dilution; format: cell-based; conditions: Escherichia coli, dilution series from the Max Conc.
Method: (§1) Compounds (1), (2), and (3) were tested to determine MIC90 values.
(§2) Rules for determining MIC values: Each extract has a starting concentration which is diluted 7 times for a total of 8 dilutions. The MIC is the lowest dilution without growth. Each serial dilution is repeated three times for three identical dilutions. For reporting the results, the following rules were used. Inconsistent values were thrown out. For instance, the MIC value reported for an extract with MIC readings of 4, 4, and 2 would be four (the 2 is thrown out). If the readings are all different and in series like 2, 4, and 8, the median MIC value of 4 would be reported. If the three values are all different and not in series, an error is reported. Besides the three identical dilutions at the same starting concentration, each extract has dilutions starting at three different concentrations: 64, 4, and 0.25 μg/mL. Each extract therefore has 3 identical dilution series at 3 different starting concentrations—a total of 24 dilutions. The dilutions overlap which can result in a disagreement in MIC values for two different starting dilutions. Since a small amount of error is introduced with each dilution, the MIC readings with the fewest dilutions are selected as the correct MIC values.
(§3) Abbreviations: MRSA=methicillin-resistant Staphylococcus aureus; SA=Staphylococcus aureus; PA=Pseudomonas aeruginosa; Kleb=Klebsiella pneumonia; EC=Escherichia coli; VSE=Vancomycin-sensitive enterococci faecium.

PA 27853 [2] = test: MIC90 determination by serial dilution; format: cell-based; conditions: Pseudomonas aeruginosa, dilution series from the Max Conc.
Method: as §1, §2, §3

SA 29213 [3] = test: MIC90 determination by serial dilution; format: cell-based; conditions: Staphylococcus aureus, dilution series from the Max Conc.
Method: as §1, §2, §3

VSE 49452 [4] = test: IC50 determination (XlFit dose response model 200); format: cell-based, Vancomycin-sensitive enterococci faecium; conditions: average of 3 replicates
Method: (§4) Compounds (1), (2), and (3) were tested to determine IC50 values. IC50 was determined using XlFit add-in using dose response model 200. The average of 3 replicates is presented for each compound in Table 2.

VSE 6569 [5] = test: IC50 determination (XlFit dose response model 200); format: cell-based, Vancomycin-sensitive enterococci faecium; conditions: average of 3 replicates
Method: as §4

Kleb 4352 [6] = test: IC50 determination (XlFit dose response model 200); format: cell-based, Klebsiella pneumonia; conditions: Klebsiella pneumoniae, average of 3 replicates
Method: as §4

Kleb 4352 [7] = test: MIC90 determination by serial dilution; format: cell-based, Klebsiella pneumonia; conditions: Klebsiella pneumoniae, dilution series from the Max Conc.
Method: as §1, §2, §3

MRSA 43300 [8] = test: MIC90 determination by serial dilution; format: cell-based, methicillin-resistant Staphylococcus aureus; conditions: Staphylococcus aureus, dilution series from the Max Conc.
Method: as §1, §2, §3

VSE 49452 [9] = test: MIC90 determination by serial dilution; format: cell-based, Vancomycin-sensitive enterococci faecium; conditions: dilution series from the Max Conc.
Method: as §1, §2, §3

VSE 6569 [10] = test: MIC90 determination by serial dilution; format: cell-based, Vancomycin-sensitive enterococci faecium; conditions: dilution series from the Max Conc.
Method: as §1, §2, §3

EC 25922 [11] = test: IC50 determination (XlFit dose response model 200); format: cell-based; conditions: Escherichia coli, average of 3 replicates
Method: as §4

PA 27853 [12] = test: IC50 determination (XlFit dose response model 200); format: cell-based; conditions: Pseudomonas aeruginosa, average of 3 replicates
Method: as §4

SA 29213 [13] = test: IC50 determination (XlFit dose response model 200); format: cell-based; conditions: Staphylococcus aureus, average of 3 replicates
Method: as §4

MRSA 43300 [14] = test: IC50 determination (XlFit dose response model 200); format: cell-based, methicillin-resistant Staphylococcus aureus; conditions: Staphylococcus aureus, average of 3 replicates
Method: as §4

Structure (SMILES) | MIC90 (EC 25922 [1]) | MIC90 (PA 27853 [2]) | MIC90 (SA 29213 [3]) | IC50 (VSE 49452 [4]) | IC50 (VSE 6569 [5]) | IC50 (Kleb 4352 [6]) | MIC90 (Kleb 4352 [7]) | MIC90 (MRSA 43300 [8]) | MIC90 (VSE 49452 [9]) | MIC90 (VSE 6569 [10]) | IC50 (EC 25922 [11]) | IC50 (PA 27853 [12]) | IC50 (SA 29213 [13]) | IC50 (MRSA 43300 [14])
CCC(C)(C)C(=O)C(=O)N1CCCC[C@H]1C(=O)O[C@H](CCc1ccc(OC)c(OC)c1)c1cccc(OCCNC(=O)c2cccc(NC(=O)[C@@H]3C[C@H](SC4=C(C(=O)O)N5C(=O)[C@H]([C@@H](C)O)[C@H]5[C@H]4C)CN3)c2)c1 [(1), (4R,5S,6S)-3-((3S,5S)-5-(3-(2-(3-((R)-3-(3,4-dimethoxyphenyl)-1-((S)-1-(3,3-dimethyl-2-oxopentanoyl)piperidine-2-carbonyloxy)propyl)phenoxy)ethylcarbamoyl)phenylcarbamoyl)pyrrolidin-3-ylthio)-6-((R)-1-hydroxyethyl)-4-methyl-7-oxo-1-azabicyclo[3.2.0]hept-2-ene-2-carboxylic acid] | > 64 µg/mL | > 64 µg/mL | 2 µg/mL (≈ 1.95 µM) | 6.91 µg/mL (≈ 6.73 µM) | 15.2 µg/mL (≈ 14.8 µM) | > 64 µg/mL | > 64 µg/mL | 8 µg/mL (≈ 7.8 µM) | 16 µg/mL (≈ 15.6 µM) | 64 µg/mL (≈ 62.4 µM) | > 64 µg/mL | > 64 µg/mL | 0.942 µg/mL (≈ 0.918 µM) | 0.265 µg/mL (≈ 0.258 µM)
CCC(C)(C)C(=O)C(=O)N1CCCC[C@H]1C(=O)O[C@H](CCc1ccc(OC)c(OC)c1)c1cccc(OCC(=O)NCCCCCN2C[C@@H](SC3=C(C(=O)O)N4C(=O)[C@H]([C@@H](C)O)[C@H]4[C@H]3C)C[C@H]2C(=O)N(C)C)c1 [(2), (4R,5S,6S)-3-((3S,5S)-1-(5-(2-(3-((R)-3-(3,4-dimethoxyphenyl)-1-((S)-1-(3,3-dimethyl-2-oxopentanoyl)piperidine-2-carbonyloxy)propyl)phenoxy)acetamido)pentyl)-5-(dimethylcarbamoyl)pyrrolidin-3-ylthio)-6-((R)-1-hydroxyethyl)-4-methyl-7-oxo-1-azabicyclo[3.2.0]hept-2-ene-2-carboxylic acid] | > 64 µg/mL | > 64 µg/mL | 2 µg/mL (≈ 1.93 µM) | 1.6 µg/mL (≈ 1.55 µM) | 7.23 µg/mL (≈ 6.99 µM) | > 64 µg/mL | > 64 µg/mL | 8 µg/mL (≈ 7.73 µM) | 16 µg/mL (≈ 15.5 µM) | 32 µg/mL (≈ 30.9 µM) | > 64 µg/mL | > 64 µg/mL | 0.871 µg/mL (≈ 0.842 µM) | 0.17 µg/mL (≈ 0.164 µM)
NCC[C@H](O)C(=O)N[C@@H]1C[C@H](N)[C@@H](O[C@H]2O[C@H](CN)[C@@H](O)[C@H](O)[C@H]2O)[C@H](O)[C@H]1O[C@H]1O[C@H](CO)[C@@H](O)[C@H](N)[C@H]1O [Amikacin] |  | 1 µg/mL (≈ 1.71 µM) |  |  |  |  |  |  |  |  |  | 0.274 µg/mL (≈ 0.468 µM) |  | 
O=C(N[C@H](CO)[C@H](O)c1ccc([N+](=O)[O-])cc1)C(Cl)Cl [Chloramphenicol] | 8 µg/mL (≈ 24.8 µM) | > 64 µg/mL | 8 µg/mL (≈ 24.8 µM) | < 2 µg/mL | < 2 µg/mL | > 64 µg/mL | ≤ 2 µg/mL | 4 µg/mL (≈ 12.4 µM) | 4 µg/mL (≈ 12.4 µM) | ≤ 2 µg/mL | < 2 µg/mL | > 64 µg/mL | > 64 µg/mL | < 2 µg/mL
C[C@H]1c2cccc(O)c2C(=O)C2=C(O)[C@]3(O)C(=O)C(C(N)=O)=C(O)[C@@H](N(C)C)[C@@H]3[C@@H](O)[C@@H]21 [Doxycycline] |  | 32 µg/mL (≈ 72 µM) |  |  |  |  |  |  |  |  |  | 6.3 µg/mL (≈ 14.2 µM) |  | 
CC[C@H]1OC(=O)[C@H](C)[C@@H](O[C@H]2C[C@@](C)(OC)[C@@H](O)[C@H](C)O2)[C@H](C)[C@@H](O[C@@H]2O[C@H](C)C[C@H](N(C)C)[C@H]2O)[C@](C)(O)C[C@@H](C)C(=O)[C@H](C)[C@@H](O)[C@]1(C)O [Erythromycin] | 64 µg/mL (≈ 87.2 µM) | > 64 µg/mL | ≤ 2 µg/mL | < 2 µg/mL | 2.75 µg/mL (≈ 3.75 µM) | 2.21 µg/mL (≈ 3.01 µM) | 8 µg/mL (≈ 10.9 µM) | > 64 µg/mL | ≤ 2 µg/mL | 8 µg/mL (≈ 10.9 µM) | 20.7 µg/mL (≈ 28.2 µM) | > 64 µg/mL | < 2 µg/mL | > 64 µg/mL
C[C@@H](O)[C@H]1C(=O)N2C(C(=O)O)=C(S[C@@H]3CN[C@H](C(=O)N(C)C)C3)[C@H](C)[C@H]12 [Meropenem, meropenem, reference compound] | 0.06 µg/mL (≈ 0.156 µM) | 1 µg/mL (≈ 2.61 µM) | 0.25 µg/mL (≈ 0.652 µM) | 6.74 µg/mL (≈ 17.6 µM) | 11.8 µg/mL (≈ 30.8 µM) | 0.121 µg/mL (≈ 0.316 µM) | 0.12 µg/mL (≈ 0.313 µM) | 4 µg/mL (≈ 10.4 µM) | 16 µg/mL (≈ 41.7 µM) | 32 µg/mL (≈ 83.4 µM) | 0.122 µg/mL (≈ 0.318 µM) | 0.945 µg/mL (≈ 2.46 µM) | 0.126 µg/mL (≈ 0.329 µM) | 0.037 µg/mL (≈ 0.0965 µM)
O=C1CN(/N=C/c2ccc([N+](=O)[O-])o2)C(=O)N1 [Nitrofurantoin] | 8 µg/mL (≈ 33.6 µM) | > 32 µg/mL | 16 µg/mL (≈ 67.2 µM) | 3.57 µg/mL (≈ 15 µM) | 2.87 µg/mL (≈ 12.1 µM) | 3.68 µg/mL (≈ 15.4 µM) | 16 µg/mL (≈ 67.2 µM) | 8 µg/mL (≈ 33.6 µM) | 8 µg/mL (≈ 33.6 µM) | 32 µg/mL (≈ 134 µM) | 3.27 µg/mL (≈ 13.7 µM) | > 32 µg/mL | 7.71 µg/mL (≈ 32.4 µM) | 1.83 µg/mL (≈ 7.67 µM)

— patent US20120022040A1, “ANTIMICROBIALS” (priority 2008, published 2012)
